Test system: F1G cells

Q: How did the “cytotoxicity” value turn out when Cc1cccc2nc(CSC(=S)NCc3cccnc3)cn12 [Compound 1, (5-methylimidazo[1,2-a]pyridin-2-yl)methyl (pyridin-3-ylmethyl)carbamodithioate] was run?
A: without cytoxicity at the active doses
